What all share (test): NCI tumour cell line growth inhibition, 48 h
The subject of experiment [1] is HCT-15.
Experiment [2] concerns KM12.
In experiment [3] the test system is HOP-92.
In experiment [4] the test system is M14.
In experiment [5] the test system is SR.
Experiment [6] has as its system RXF 393.
For experiment [7], the system named is SF-268.
For experiment [8], the system named is A549.
The subject of experiment [9] is SK-MEL-2.
Experiment [10] has as its system SK-OV-3.
The subject of experiment [11] is T47D.
The subject of experiment [12] is NCI-H460.
The subject of experiment [13] is MCF7.
Experiment [14] has as its system SF-539.
In experiment [15] the test system is LOX IMVI.
Experiment [16] relates to OVCAR-3.
In experiment [17] the test system is HL-60.
Experiment [18] concerns HCC 2998.
Experiment [19] has as its system OVCAR-8.
In experiment [20] the test system is Malme-3M.

The structures appear in SMILES notation.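 48-hour exposure; five concentrations; linearly interpolated endpoints. GI50: concentration for 50% inhibition of growth.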 The source made the active and inactive calls. Cut-off read from the data, not from the text of the source: active = GI50 up to about 1.1 µM and inactive = higher.

As to `CC1=C(C(=O)OCCO[N+](=O)[O-])C(c2ccccc2C(F)(F)F)C(C(=O)OC(C)C)=C(C)N1` (centres undefined), the GI50 in [1] was 12.2 µM; in experiment [2] it was 8.63 µM (inactive); in experiment [3], 3.03 µM (inactive); in experiment [4], 13.1 µM (inactive); in [5], 41.7 µM (inactive); in experiment [6] it was 10.3 µM (inactive). In addition, the GI50 was 16.3 µM (inactive) in experiment [7]; 13.2 µM (inactive) in experiment [8]; 12.8 µM (inactive) in experiment [9]; 39.6 µM (inactive) in experiment [10]; 19.8 µM (inactive) in experiment [11]; 10.7 µM (inactive) in experiment [12]. Moreover, the GI50 in experiment [13] was 16 µM (inactive); in experiment [14], 17.3 µM (inactive); in experiment [15], 13.9 µM (inactive); in experiment [16] it was 10.5 µM (inactive); in [17], 15.9 µM (inactive); in [18] it was 22.4 µM (inactive). Further, the results for the GI50 in experiment [19] and in [20] were 17.7 µM (inactive) and 18.3 µM (inactive), respectively.

On to `O=c1c(C(c2ccc3ccccc3c2)c2c(O)oc3cc(O)ccc3c2=O)c(O)oc2cc(O)ccc12`, for which the GI50 in [1] is > 100 µM; in experiment [2] it was 30.6 µM (inactive); in experiment [3], 75 µM (inactive); in [4] it was > 100 µM (inactive); in experiment [5] it was 26.6 µM (inactive); in experiment [6] it was 88.5 µM (inactive). The GI50 in [7] is 15.9 µM (inactive); in experiment [8] it was > 100 µM (inactive); in experiment [9], > 100 µM (inactive); in experiment [10], > 100 µM (inactive); in [11], > 100 µM (inactive); in experiment [12], 41.3 µM (inactive). Further, the GI50 was 43.2 µM (inactive) in experiment [13]; 84.1 µM (inactive) in experiment [14]; 32.7 µM (inactive) in experiment [15]; 80 µM (inactive) in [16]; 38.5 µM (inactive) in experiment [17]; > 100 µM (inactive) in experiment [18]. For the same compound, the GI50 in experiment [19] was 71 µM (inactive).

Consider `CC(=O)Oc1ccc(-c2cc3ccccc3oc2=O)cc1`, for which the GI50 in experiment [1] was > 100 µM; in experiment [2], 18.7 µM (inactive); in experiment [3] it was 60.8 µM (inactive); in [4], > 100 µM (inactive); in experiment [5], 56.9 µM (inactive); in experiment [7] it was > 100 µM (inactive). The GI50 is > 100 µM (inactive) in experiment [8]; > 100 µM (inactive) in [9]; 52.8 µM (inactive) in experiment [11]; > 100 µM (inactive) in experiment [12]; > 100 µM (inactive) in [13]; > 100 µM (inactive) in [14]. The GI50 was 81.3 µM (inactive) in [15]; 6.27 µM (inactive) in experiment [16]; 24.8 µM (inactive) in [17]; > 100 µM (inactive) in [18]; > 100 µM (inactive) in [19]; > 100 µM (inactive) in [20].

As for `c1ccc(CN[C@]23C4C5CC6C7C5C2C7[C@@](NCc2ccccc2)(C64)N3Cc2ccccc2)cc1` (some centres undefined), the GI50 is > 100 µM in experiment [1]; > 100 µM (inactive) in experiment [2]; > 100 µM (inactive) in experiment [3]; > 100 µM (inactive) in experiment [4]; 3.94 µM (inactive) in experiment [5]; > 100 µM (inactive) in experiment [6]. The GI50 in [7], in [8], in experiment [9], in experiment [10], in [11] and in experiment [12] was > 100 µM (inactive) throughout. Further, the GI50 in [13], in experiment [14], in [15], in experiment [16], in [17] and in [19] was > 100 µM (inactive) in each case. For the same compound, the GI50 in experiment [20] was > 100 µM (inactive).

In the case of `COc1cc(/C=C/C(=N\NC(N)=S)c2sc(NNC(C)=O)nc2C)ccc1O`, the GI50 is > 100 µM in [1]; > 100 µM (inactive) in experiment [2]; > 100 µM (inactive) in [3]; > 100 µM (inactive) in [4]; > 100 µM (inactive) in experiment [5]; > 100 µM (inactive) in experiment [6]. The GI50 in experiment [7], in experiment [8], in experiment [9], in experiment [10], in experiment [11] and in experiment [12] was > 100 µM (inactive) in each case. The GI50 in experiment [13] is > 100 µM (inactive); in experiment [14], > 100 µM (inactive); in experiment [15] it was > 100 µM (inactive); in [16] it was > 100 µM (inactive); in experiment [17] it was 29.6 µM (inactive); in [18] it was > 100 µM (inactive). The GI50 in experiment [19] and in [20] was > 100 µM (inactive) throughout.

As to `O=C(/C=C/c1ccc2c(c1)OCO2)NCCc1ccco1`, the GI50 is > 100 µM (inactive) in experiment [2]; 92.7 µM (inactive) in experiment [3]; 45.5 µM (inactive) in [4]; 18.5 µM (inactive) in [5]; > 100 µM (inactive) in [6]; > 100 µM (inactive) in [7]. The GI50 in experiment [8] was 89.5 µM (inactive); in experiment [9], > 100 µM (inactive); in experiment [10], > 100 µM (inactive); in experiment [11], 26.5 µM (inactive); in experiment [12] it was 69.8 µM (inactive); in experiment [13] it was 49.4 µM (inactive). Besides, the GI50 was > 100 µM (inactive) in experiment [14]; 78.5 µM (inactive) in experiment [15]; 34.4 µM (inactive) in [16]; > 100 µM (inactive) in experiment [18]; > 100 µM (inactive) in [19]; 41.6 µM (inactive) in [20].

As to `COC(=O)C1(NC(=O)C(CC(=O)OCc2ccccc2)NC(=O)OCc2ccccc2)CCCCCCC1` (centres undefined), the GI50 in experiment [1] was 30.3 µM; in experiment [2], 48.3 µM (inactive); in [3] it was 42.9 µM (inactive); in experiment [4], 34.4 µM (inactive); in [5] it was 5.35 µM (inactive); in experiment [6], 15.4 µM (inactive). Besides, the GI50 in experiment [7] was 44.7 µM (inactive); in experiment [8] it was 32.1 µM (inactive); in experiment [10], 40 µM (inactive); in experiment [11], 17.6 µM (inactive); in [12], 30.7 µM (inactive); in experiment [13], 31.8 µM (inactive). Besides, the GI50 in [14] was 49.7 µM (inactive); in experiment [15] it was 28.2 µM (inactive); in experiment [16], 60.1 µM (inactive); in experiment [17], 11.3 µM (inactive); in experiment [19] it was 26.4 µM (inactive).

In the case of `O=C(/N=N/c1ccc(Br)cc1)NNc1ccc(Br)cc1`, the GI50 in experiment [1] was 19.4 µM; in experiment [2], 17.7 µM (inactive); in [3], 16.1 µM (inactive); in experiment [4], 17.1 µM (inactive); in experiment [5] it was 28.6 µM (inactive); in experiment [6], 14.1 µM (inactive). Further, the GI50 in [9] is 19.1 µM (inactive); in [10], 29 µM (inactive); in [11] it was 29.8 µM (inactive); in [12] it was 21.9 µM (inactive); in experiment [13], 18.2 µM (inactive); in experiment [16], 16.8 µM (inactive). The GI50 in experiment [17] is 14 µM (inactive); in experiment [18], 21.5 µM (inactive); in experiment [19] it was 29.7 µM (inactive); in experiment [20], 26 µM (inactive).

For `CCCCN(CCCC)C1=Nc2ccccc2-n2c(nnc2C(=O)OCC)C1`, the GI50 is 29.4 µM (inactive) in experiment [2]; 33.6 µM (inactive) in experiment [3]; 44.3 µM (inactive) in experiment [4]; 19.1 µM (inactive) in experiment [5]; 24.7 µM (inactive) in [6]; 50.9 µM (inactive) in experiment [7]. The GI50 in experiment [8] is 33.9 µM (inactive); in experiment [10], 68.4 µM (inactive); in experiment [11] it was 10.4 µM (inactive); in experiment [12], 22.7 µM (inactive); in experiment [13] it was 37.2 µM (inactive); in experiment [14] it was 44.4 µM (inactive). In addition, the GI50 in experiment [15] is 38.8 µM (inactive); in experiment [16], 37.2 µM (inactive); in experiment [17] it was 15.6 µM (inactive); in experiment [18], 38.8 µM (inactive); in experiment [19], 69.3 µM (inactive); in [20], 24.6 µM (inactive).

Regarding `Fc1ccc(C(OCCN2CC3CC2CN3)c2ccc(F)cc2)cc1` (centres undefined), the GI50 was 60.5 µM in experiment [1]; 39.6 µM (inactive) in experiment [2]; 69.2 µM (inactive) in experiment [3]; 27.5 µM (inactive) in experiment [5]; 27.4 µM (inactive) in experiment [6]; > 100 µM (inactive) in experiment [7]. In addition, the GI50 in experiment [9] is 19.1 µM (inactive); in [10] it was > 100 µM (inactive); in experiment [11] it was 35.2 µM (inactive); in experiment [12], 38.9 µM (inactive); in [13], 33.7 µM (inactive); in [14], 29.6 µM (inactive). Also, the GI50 was 50.9 µM (inactive) in [15]; > 100 µM (inactive) in experiment [16]; 20.5 µM (inactive) in [17]; 16.4 µM (inactive) in experiment [18]; > 100 µM (inactive) in experiment [19]; 16.7 µM (inactive) in experiment [20].

With `CS(=O)(=O)OCC(CCl)(CCl)CCl`, the GI50 in [1] is > 100 µM; in experiment [2], > 100 µM (inactive); in experiment [3], > 100 µM (inactive); in experiment [4] it was > 100 µM (inactive); in experiment [5], > 100 µM (inactive); in experiment [6], > 100 µM (inactive). Also, the GI50 in experiment [7], in experiment [8], in [10], in [11], in experiment [12] and in experiment [13] was > 100 µM (inactive) throughout. For the same compound, the GI50 in [15], in experiment [16], in experiment [18] and in experiment [19] was > 100 µM (inactive) each time.

The record behind these values is ChEMBL document CHEMBL1201862, “PubChem BioAssay data set” (2004).
